In patent US20090031435A1, “SMA Therapy and Cell Based Assay” (priority 2002, published 2009):

Columns and labels:
[1] = tested on: SMN2-luciferase reporter construct; experiment: SMN2-luciferase splicing reporter luminescence assay in C33A cells; assay type: cell-based, human
Protocol: (§1) In a screen to identify compounds capable of enhancing the inclusion of exon 7 in SMN2 mRNA, cells of the human cervical carcinoma cell line C33A (ATCC#HTB-31) were stably transformed with an SMN fragment/luciferase reporter gene construct that incorporated exons 6-8 of SMN1 or SMN2 for use in a high-throughput screening assay. These cells were cultured in Dulbecco's Modified Eagle's Medium (DMEM) with 10% Fetal Bovine Serum (Sigma F 2442), 50 units/mL penicillin 50 μg/mL streptomycin sulfate and 400 mg/L G418 (i.e. Geneticin, Gibco, cat. No. 11811-031). The assay medium used to perform the luciferase assay was identical to the growth medium except the G418 selection agent was omitted. To perform the luciferase assay, a single reagent (25 mM glycylglycine, 15 mM magnesium sulfate, 4 mM EGTA, adjusted to pH 7.85, to which is added 10 μM D-luciferin (Sigma L9504), 10 mM dithiothreitol (DTT, Roche Molecular Biochemicals 100034), 2 mM adenosine 5′-triphosphate (ATP, Sigma A7699), 50 μM CoenzymeA, sodium salt (Sigma C 3144) and 1.5% Triton X-100) was used to lyse the cells and to initiate the luciferase reaction.
(§2) Using this cell-based luminescence assay, a screen was performed to identify compounds that modulate SMN splicing. Stably transfected C33A cells (˜35-40 M cells/flask) were cultured, then removed from T-175 culture flasks with 3 mL trypsin, and quenched with 7 mL assay medium. The cells were spun down and re-suspended in assay medium to a concentration of ˜200,000 cells/mL. Cells were immediately seeded in 384-well assay plates (Nalge Nunc white plates, #164610) 57 μL/well for a cell density of 11,000 cells/well. Compounds from a library obtained from the National Institute of Neurological Disorders and Stroke (NINDS) were added to the cells to a final concentration of 10 μM (diluted with assay medium by 1000× from the 10 mM stock solution in DMSO). The cells were incubated with the test compounds at 37° C. for ˜48 hr. A Zymark Sciclone ALH was used for cell seeding and compound addition. After incubation, the assay plates were cooled to room temperature for ˜10-60 minutes. The medium and compounds were aspirated from the wells, followed by 6 rinse/aspirate cycles with a PBS solution. 53 μL of the luciferase assay reagent was added and the plate was immediately transferred to a luminescence plate reader. The plate was shaken for 30 minutes prior to reading. The plate processing steps were performed on an integrated Packard Minitrak/Sidetrak platereader.
(§3) To analyze the data, the dark count background was first subtracted from all luminescence readings. The signal from each compound treated well was divided by the average of 48 control wells on the same 384-well plate. Each compound library plate was tested in triplicate with each of the two cell lines, and the entire assay was repeated on two separate occasions, yielding six readings for each compound for each cell line. The highest and lowest of the six normalized readings were dropped and the remaining four readings averaged. These average values of compound-treated luminescence versus control luminescence are denoted “Xnorm(y)”, where X indicates the cell line, SMN1-luciferase or SMN2-luciferase, and y represents the compound. The difference of [SMN2norm(y)−SMN1norm(y)] measures the selective change in SMN2-luciferase expression versus change in SMN1 luciferase production upon treatment with compound y. This is the final score that is output.
(§4) These dilutions were created with a Zymark Sciclone ALH Z-8. Once created, the assay was performed as described for the screening process. Concentrations required to achieve 50% of the maximally achievable effect for each compound (“EC50”) were calculated using Xlfit (IDBS).

SMN1-luciferase control = SMN1-luciferase control splicing reporter luminescence assay in C33A cells; assay type: cell-based, human
Protocol: as §1, §2, §3, §4

[2] = tested on: SMN2-luciferase reporter construct; experiment: SMN2-luciferase splicing reporter luminescence assay in NSC34 cells; assay type: cell-based, mouse
Source text: For example, when luciferase is used as the reporter gene in an SMN splicing assay, synthesis of full-length protein can be monitored by luminescence; positive drug candidates will elicit an increase in the amount of luminescence produced from an SMN2-luciferase cassette, which is normally inefficiently spliced, but will not affect the level of luminescence in cells expressing the SMN1-luciferase reporter (because SMN1 transcripts are normally spliced to include exon 7 about 100% of the time). ELISA, Western blotting or gem counts (obtained using indirect immunofluorescence microscopy) can be used to verify the increase in SMN2-luciferase protein levels, and analysis by RNAase protection, Northern blot or RT-PCR, such as quantitative or semiquantitative, can be used to determine whether the effect of the compound is at the level of splicing or mRNA stability. Identification of a role for indoprofen or analogs of this compound in SMN splicing in vitro can be achieved through the generation of stable cell lines expressing the SMN-reporter gene (e.g., SMN-luciferase) splicing cassette. For example, the embryonic mouse spinal cord cell line NSC34 and the human cervical carcinoma cell line C33A can be used for the methods of the invention. […]

CC(Cc1ccccc1)C(=O)O (stereo not drawn) [Alpha-methylhydrocinnamic acid]
Effect on splicing of SMN2-luciferase in C33A cells [1]: Decreased
Effect on splicing of SMN1-luciferase control in C33A cells (SMN1-luciferase control): Decreased
Effect on splicing of SMN2-luciferase in NSC34 cells [2]: (no effect in NSC34
